According to patent US20090312433A1, “TREATMENT OF VR1-ANTAGONIST-INDUCED INCREASE IN BODY TEMPERATURE WITH AN ANTIPYRETIC AGENT” (Amgen Inc., priority 2005, published 2009):
Entries after “also recorded” stand apart in the source; their conditions may differ.

How the values were obtained:
rats = assay: Body temperature in rats after TRPV1 antagonist followed by acetaminophen; format: in vivo
Experimental: In this study rats were first treated with vehicle (Oraplus/5% Tween 80) or a TRPV1 antagonist (Compound A; 3 mg/kg, p.o.). Following a 120 min period, separate groups of rats were then administered vehicle (Oraplus/5% Tween 80) or acetaminophen (300 mg/kg, p.o.). Body temperature was then measured for an additional 120 min.

TRPV1 [1] = settings: different species; cited from earlier work
TRPV1 [2] = settings: cited from earlier work

CC(=O)Nc1nc2c(Oc3cc(-c4ccc(C(F)(F)F)cc4NC(=O)OC(C)(C)C)ncn3)cccc2s1 [Compound A, {2-[6-(2-acetylamino-benzothiazol-4-yloxy)-pyrimidin-4-yl]-5-trifluoromethyl-phenyl}-carbamic acid tert-butyl ester]
body temperature following treatment with TRPV1 antagonist (rats; 3 mg/kg, p.o., 120 min period after dosing): significant increase in body temperature | body temperature compared to the control group (Veh+Veh) (rats; Compound A 3 mg/kg p.o. followed after 120 min by vehicle (Compound A+Veh group), measured for an additional 120 min): remained elevated

COc1cc(CNC(=O)CCCC/C=C/C(C)C)ccc1O [capsaicin]
hypothermia induced by TRPV1 agonists (TRPV1 [1]): induce hypothermia | hypothermia in mice lacking TRPV1 (TRPV1 [2]): did not induce hypothermia

CC(=O)Nc1ccc(O)cc1 [acetaminophen]
body temperature after TRPV1 antagonist followed by acetaminophen (rats; Compound A 3 mg/kg p.o., then after 120 min acetaminophen 300 mg/kg p.o. (Compound A+Acet group), measured for an additional 120 min): reversed; also recorded: decreased to levels observed in the control group | body temperature, acetaminophen alone (rats; vehicle, then after 120 min acetaminophen 300 mg/kg p.o. (Veh+Acet group)): decreased

C=C(C)[C@]12C[C@@H](C)[C@@]34O[C@](Cc5ccccc5)(O[C@@H]1[C@@H]3C=C(COC(=O)Cc1ccc(O)c(OC)c1)C[C@]1(O)C(=O)C(C)=C[C@@H]41)O2 [RTX, resiniferatoxin]
hypothermia induced by TRPV1 agonists (TRPV1 [1]): induce hypothermia
